The source of these data is US20050250677A1, “Glycopeptide antibiotic derivatives” (priority 2002, published 2005).

Like-named read-outs stand apart in the source and are kept apart here.

The test system of series [1] is VZV (wild-type strains). The series is described as follows: Anti-VZV assay (wild-type strains): virus-induced cytopathicity in HEL cell cultures. The format is cell-based, varicella-zoster virus. Conditions: HEL cell cultures. In general terms: Cytopathic effects are the visible damage that an infection or toxin causes in cultured cells.
Series [2] has as its system HEL cells. The following applies: read-out: CC50 (HEL); HEL cells; anti-VZV table.
The subject of series [3] is HEL cells. The following applies: anti-VZV table.
The subject of series [4] is HIV-1 (IIIB). The series is described as follows: Inhibition of HIV-1 (IIIB)-induced cytopathicity (giant cell formation) in CEM cells. The format is cell-based. Conditions: read-out: EC50 HIV-1 (concentration required to inhibit HIV-induced giant cell formation by 50%); HIV-1, CEM cell cultures. As to the method:
(§1) A variety of glycopeptide antibiotic derivatives of vancomycin, eremomycin and teicoplanin including their aglycon derivatives were evaluated for their inhibitory activity against HIV-1 (IIIB) and HIV-2(ROD) in CEM cell cultures.

The test system of series [5] is HIV-2(ROD). Briefly: Inhibition of HIV-2 (ROD)-induced cytopathicity (giant cell formation) in CEM cells. Type of series: cell-based. The following applies: read-out: EC50 HIV-2 (concentration required to inhibit HIV-induced giant cell formation by 50%); HIV-2, CEM cell cultures. As to the method: as §1
Series [6] has as its system human lymphocyte CEM. The series is described as follows: Cytostatic activity assay, CEM cells. The format is cell-based. The following applies: read-out: IC50 CEM (compound concentration required to inhibit tumor cell proliferation by 50%).
Series [7] relates to murine leukemia L1210. The series is described as follows: Cytostatic activity assay, L1210 cells. Type of series: cell-based. Conditions: read-out: IC50 L1210 (compound concentration required to inhibit tumor cell proliferation by 50%).
The subject of series [8] is human lymphocyte Molt4/clone 8. The series is described as follows: Cytostatic activity assay, Molt4/clone 8 cells. Type of series: cell-based. The following applies: read-out: IC50 Molt4/C8 (compound concentration required to inhibit tumor cell proliferation by 50%).
Where [9] appears, read: VZV strain OKA, read-out: EC50 VZV (OKA).
Where [10] appears, read: VZV strain YS, read-out: EC50 VZV (YS).

On to `CCCCCCCNC(=O)C1NC(=O)C2NC(=O)C(NC(=O)C3NC(=O)C(CC(N)=O)NC(=O)C(NC(=O)C(CC(C)C)NC)C(O)c4ccc(c(Cl)c4)Oc4cc3cc(c4OC3OC(CO)C(O)C(O)C3OC3CC(C)(N)C(O)C(C)O3)Oc3ccc(cc3)C2OC2CC(C)(N)C(O)C(C)O2)c2ccc(O)c(c2)-c2c(O)cc(O)cc21` (stereo not shown) [Compound 77], for which the results for the EC50 in series [1] (setting [9]) and in series [1] (setting [10]) were 7 µM and 5 µM, respectively. Moreover, the CC50 (usually the concentration giving 50% cytotoxicity) in series [2] turned out to be 129 µM. In series [3], the “MTC (HEL)” value is listed as “≧20-50 μM”.
`O=C1NC2C(=O)NC3C(=O)NC4C(=O)NC(C(=O)NC(C(=O)O)c5cc(O)cc(O)c5-c5cc4ccc5O)C(O)c4ccc(c(Cl)c4)Oc4cc3cc(c4O)Oc3ccc(cc3Cl)CC1NC(=O)C(NC(=O)C13CC4CC(CC(C4)C1)C3)c1ccc(O)c(c1)Oc1cc(O)cc2c1` (stereo not shown) [Compound 164]: the EC50 in series [4] was 10 µM; in series [5], 4 µM.
For the compound `CCCCCCCCCCNCc1c(O)cc2c(c1O)-c1cc(ccc1O)C1NC(=O)C3NC(=O)C4NC(=O)C(Cc5ccc(c(Cl)c5)Oc5cc3cc(c5O)Oc3ccc(cc3Cl)C(O)C(NC1=O)C(=O)NC2C(=O)NCCCN1CCCCC1C)NC(=O)C(N)c1ccc(O)c(c1)Oc1cc(O)cc4c1` (stereo not shown) [Compound 22], the IC50 in series [6] was 211 ± 1 µM; in series [7] it was 57 ± 15 µM; in series [8] it was 182 ± 31 µM. In addition, the EC50 in series [4] amounted to 1.3 ± 0.92 µM; in series [5], 7 µM.
The like results for `CCCCc1ccc(CNCc2c(O)cc3c(c2O)-c2cc(ccc2O)C2NC(=O)C4NC(=O)C(CC(N)=O)NC(=O)C(NC(=O)C(CC(C)C)NC)C(O)c5ccc(c(Cl)c5)Oc5cc4cc(c5OC4OC(CO)C(O)C(O)C4OC4CC(C)(N)C(O)C(C)O4)Oc4ccc(cc4)C(OC4CC(C)(N)C(O)C(C)O4)C(NC2=O)C(=O)NC3C(=O)NC)cc1` (stereo not shown) [Compound 3] were, in that order, 95 ± 14.1 µM, 22 ± 0.3 µM, 24 ± 18 µM, 5.1 ± 3.3 µM and 20 µM.
For the compound `NC1C(=O)NC2Cc3ccc(c(Cl)c3)Oc3cc4cc(c3O)Oc3ccc(cc3Cl)C(O)C3NC(=O)C(NC(=O)C4NC(=O)C(NC2=O)c2cc(O)cc(c2)Oc2cc1ccc2O)c1ccc(O)c(c1)-c1c(cc(O)c(CN2CCN(Cc4ccc(Cl)cc4)CC2)c1O)C(C(=O)O)NC3=O` (stereo not shown) [Compound 119], in series [1] (setting [9]), the EC50 stood at 5 µM. The CC50 in series [2] is above 50 µM. In addition, the “MTC (HEL)” value in series [3] lay in the range of 20 to 400 µM.
As to `NC1C(=O)NC2Cc3ccc(c(Cl)c3)Oc3cc4cc(c3O)Oc3ccc(cc3Cl)C(O)C3NC(=O)C(NC(=O)C4NC(=O)C(NC2=O)c2cc(O)cc(c2)Oc2cc1ccc2O)c1ccc(O)c(c1)-c1c(O)cc(O)cc1C(C(=O)N1CCN(N=Cc2ccc(Cl)cc2)CC1)NC3=O` (stereo not shown) [Compound 113], the EC50 in series [1] (setting [9]) was 0.68 µM; in series [1] (setting [10]) it was 0.42 µM. In series [2], the CC50 is above 50 µM. In addition, the “MTC (HEL)” value in series [3] is reported as “≧5-20 μM”.
The like results for `CCCCc1ccc(CNCC(=O)N2CCN(Cc3c(O)cc4c(c3O)-c3cc(ccc3O)C3NC(=O)C5NC(=O)C6NC(=O)C(Cc7ccc(c(Cl)c7)Oc7cc5cc(c7O)Oc5ccc(cc5Cl)C(O)C(NC3=O)C(=O)NC4C(=O)NC)NC(=O)C(N)c3ccc(O)c(c3)Oc3cc(O)cc6c3)CC2)cc1` (stereo not shown) [Compound 143] were, in that order, 2.8 µM, 2.6 µM, above 50 µM and “≧20-50 μM”.
As to `CNCc1c(O)cc2c(c1O)-c1cc(ccc1O)C1NC(=O)C3NC(=O)C4NC(=O)C(Cc5ccc(c(Cl)c5)Oc5cc3cc(c5O)Oc3ccc(cc3Cl)C(O)C(NC1=O)C(=O)NC2C(=O)O)NC(=O)C(NC(=O)OC(C)(C)C)c1ccc(O)c(c1)Oc1cc(O)cc4c1` (stereo not shown) [Compound 140], the EC50 in series [1] (setting [9]) was 13 µM. For the same compound, in series [2], the CC50 is above 50 µM. The “MTC (HEL)” value in series [3] is given as “≧50-200 μM”.
As for `CCCCc1ccc(CNC2C(Oc3c4cc5cc3Oc3ccc(cc3Cl)C(O)C3NC(=O)C(NC(=O)C5NC(=O)C5NC(=O)C(Cc6ccc(cc6)O4)NC(=O)C(NC)c4ccc(O)c(c4)Oc4cc(O)c(Cl)c5c4)c4ccc(O)c(c4)-c4c(cc(O)c(CN5CCN(Cc6ccc(-c7ccccc7)cc6)CC5)c4O)C(C(=O)O)NC3=O)OC(C(=O)O)C(O)C2O)cc1` (stereo not shown) [Compound 93], the IC50 in series [6] amounted to 81 µM. Besides, the EC50 in series [4] came to 3.5 µM; in series [5] it was 22 µM.
For the compound `CCCCc1ccc(CNC(=O)C2NC(=O)C3NC(=O)C(NC(=O)C4NC(=O)C(CC(N)=O)NC(=O)C(NC(=O)C(CC(C)C)NC)C(O)c5ccc(c(Cl)c5)Oc5cc4cc(c5OC4OC(CO)C(O)C(O)C4OC4CC(C)(N)C(O)C(C)O4)Oc4ccc(cc4)C3OC3CC(C)(N)C(O)C(C)O3)c3ccc(O)c(c3)-c3c(O)cc(O)cc32)cc1` (stereo not shown) [Compound 76], the EC50 was 2.7 µM in series [1] (setting [9]) and above 2 µM in series [1] (setting [10]). In addition, the half-maximal cytotoxic concentration (CC50) in series [2] stood at 98 µM. For the same compound, the “MTC (HEL)” value in series [3] is on record as “≧5-20 μM”.
As for `CCCCCCCCCC(=O)N1CCN(Cc2c(O)cc3c(c2O)-c2cc(ccc2O)C2NC(=O)C4NC(=O)C5NC(=O)C(Cc6ccc(c(Cl)c6)Oc6cc4cc(c6O)Oc4ccc(cc4Cl)C(O)C(NC2=O)C(=O)NC3C(=O)O)NC(=O)C(N)c2ccc(O)c(c2)Oc2cc(O)cc5c2)CC1` (stereo not shown) [Compound 141], the EC50 in series [1] (setting [9]) stood at 7.1 µM. The CC50 in series [2] was above 50 µM. In series [3], the “MTC (HEL)” value amounted to 50 µM.
As for `NC1C(=O)NC2Cc3ccc(c(Cl)c3)Oc3cc4cc(c3OCc3ccc(-c5ccccc5)cc3)Oc3ccc(cc3Cl)C(O)C3NC(=O)C(NC(=O)C4NC(=O)C(NC2=O)c2cc(O)cc(c2)Oc2cc1ccc2O)c1ccc(O)c(c1)-c1c(O)cc(O)cc1C(C(=O)O)NC3=O` (stereo not shown) [Compound 128], the values for the EC50 in series [1] (setting [9]) and in series [1] (setting [10]) were 1.8 µM and 0.8 µM, respectively. In series [2], the CC50 amounted to 48 µM. Further, in series [3], the “MTC (HEL)” value was determined as 20 µM.
The like results for `CCCCCCCCCCNCc1c(O)cc2c(c1O)-c1cc(ccc1O)C1NC(=O)C3NC(=O)C4NC(=O)C(Cc5ccc(c(Cl)c5)Oc5cc3cc(c5O)Oc3ccc(cc3Cl)C(O)C(NC1=O)C(=O)NC2C(=O)NCCCN(C)C)NC(=O)C(NC(=O)C(N)CCCCN)c1ccc(O)c(c1)Oc1cc(O)cc4c1` (stereo not shown) [Compound 121] were, in that order, 2.3 µM, 3.1 µM, 40 µM and “≧5-20 μM”.
The like results for `CN(Cc1ccc(-c2ccccc2)cc1)Cc1c(O)cc2c(c1O)-c1cc(ccc1O)C1NC(=O)C3NC(=O)C4NC(=O)C(Cc5ccc(c(Cl)c5)Oc5cc3cc(c5O)Oc3ccc(cc3Cl)C(O)C(NC1=O)C(=O)NC2C(=O)O)NC(=O)C(N)c1ccc(O)c(c1)Oc1cc(O)cc4c1` (stereo not shown) [Compound 117] were, in that order, 2.9 µM, 2.7 µM, above 50 µM and “≧5-80 μM”.
Turning to `CCCCc1ccc(CNCc2c(O)cc3c(c2O)-c2cc(ccc2O)C2NC(=O)C4NC(=O)C5NC(=O)C(Cc6ccc(c(Cl)c6)Oc6cc4cc(c6O)Oc4ccc(cc4Cl)C(O)C(NC2=O)C(=O)NC3C(=O)O)NC(=O)C(N)c2ccc(O)c(c2)Oc2cc(O)cc5c2)cc1` (stereo not shown) [Compound 136], the EC50 in series [1] (setting [9]) was determined as 3.1 µM; in series [1] (setting [10]), 4.1 µM. Besides, the CC50 in series [2] is above 50 µM. For the same compound, the “MTC (HEL)” value in series [3] was in the range of 20 to 50 µM.
With `CCCCc1ccc(CNC2C(=O)NC3Cc4ccc(c(Cl)c4)Oc4cc5cc(c4O)Oc4ccc(cc4Cl)C(O)C4NC(=O)C(NC(=O)C5NC(=O)C(NC3=O)c3cc(O)cc(c3)Oc3cc2ccc3O)c2ccc(O)c(c2)-c2c(cc(O)c(CN3CCN(Cc5ccc(-c6ccccc6)cc5)CC3)c2O)C(C(=O)N2CCN(Cc3ccc(-c5ccccc5)cc3)CC2)NC4=O)cc1` (stereo not shown) [Compound 123], the EC50 in series [1] (setting [9]) was 2.8 µM. Also, the CC50 in series [2] is above 50 µM. Moreover, the “MTC (HEL)” value in series [3] is “≧5-200 μM”.
On to `CNC(=O)C1NC(=O)C2NC(=O)C(NC(=O)C3NC(=O)C4NC(=O)C(Cc5ccc(c(Cl)c5)Oc5cc3cc(c5O)Oc3ccc(cc3Cl)C2O)NC(=O)C(N)c2ccc(O)c(c2)Oc2cc(O)cc4c2)c2ccc(O)c(c2)-c2c(O)cc(O)cc21` (stereo not shown) [Compound 120], for which the EC50 stood at 9 µM in series [1] (setting [9]) and 10 µM in series [1] (setting [10]). Further, the CC50 in series [2] was above 200 µM. In addition, the “MTC (HEL)” value in series [3] is on record as “≧20-200 μM”.
The like results for `CCCCN(CCCC)c1ccc(CNC(=O)C2NC(=O)C3NC(=O)C(NC(=O)C4NC(=O)C5NC(=O)C(Cc6ccc(c(Cl)c6)Oc6cc4cc(c6O)Oc4ccc(cc4Cl)C3O)NC(=O)C(N)c3ccc(O)c(c3)Oc3cc(O)cc5c3)c3ccc(O)c(c3)-c3c(O)cc(O)cc32)cc1` (stereo not shown) [Compound 137] were, in that order, 0.22 µM, 0.43 µM, 98 µM and above 5 to 20 µM.
`CCCCCCCCCC[N+](C)(C)CCCNCc1c(O)cc2c(c1O)-c1cc(ccc1O)C1NC(=O)C3NC(=O)C4NC(=O)C(Cc5ccc(cc5)Oc5cc3cc(c5OC3OC(C(=O)O)C(O)C(O)C3N)Oc3ccc(cc3Cl)C(O)C(NC1=O)C(=O)NC2C(=O)O)NC(=O)C(NC)c1ccc(O)c(c1)Oc1cc(O)c(Cl)c4c1` (stereo not shown) [Compound 95]: the IC50 in series [6] turned out to be 92 µM. Besides, the results for the EC50 in series [4] and in series [5] were 3.5 µM and at least 20 µM, respectively.
With `CCCCc1ccc(CNCC(=O)N2CCN(Cc3c(O)cc4c(c3O)-c3cc(ccc3O)C3NC(=O)C5NC(=O)C6NC(=O)C(Cc7ccc(c(Cl)c7)Oc7cc5cc(c7O)Oc5ccc(cc5Cl)C(O)C(NC3=O)C(=O)NC4C(=O)O)NC(=O)C(N)c3ccc(O)c(c3)Oc3cc(O)cc6c3)CC2)cc1` (stereo not shown) [Compound 142], the EC50 in series [1] (setting [9]) is 20 µM. In addition, in series [2], the CC50 is above 50 µM. Also, in series [3], the “MTC (HEL)” value came out at 50 µM.
